Marks after values point to notes of the source that are not given here. Peptide text beside a SMILES is read from it. * marks the point of attachment. Cbz = O=C(OCc1ccccc1)*; CH2F = FC*
Assays:
[1] = test system: A549 human lung cancer cells; experiment: Flow cytometry analysis of apoptosis (propidium iodide); type: cell-based; details: for percentage of apoptosis: 48 hrs
Procedure: (§1) Apoptosis of cells was measured by propidium iodide staining and FACS analysis. Cells were harvested, pelleted by centrifugation and resuspended in phosphate-buffered saline containing 50 μg/ml propidium iodide, 0.1% Triton X-100, and 0.1% sodium citrate and vortexed prior to FACS analysis (Becton-Dickenson FACScan, Mountain View, Calif.; FL-3 channel).

[2] = test system: H460 human lung cancer cells; experiment: as above; type: cell-based; details: for percentage of apoptosis: 48 hrs
Procedure: as §1

[3] = test system: MDA-MB-436 cells; experiment: Cell cycle and apoptosis assay (PI, Annexin V/FITC, TUNEL); type: cell-based, human
Excerpt: (§2) All the cultures were subconfluent at the time of harvest. Harvested cells were fixed with ice-cold 80% ethanol, stained with propidium iodide (PI) (Sigma, St. Louis, Mo.), and analyzed using a flow cytometer (FCM) (EPICS XL-MCL, Coulter, Miami, Fla.) as described previously. Cells floating in the media and trypsinized adherent cells were harvested and pelleted. The collected cells were washed, and then stained with Annexin V-fluorescein isothiocyanate (FITC)/PI using an Annexin V/FITC apoptosis detection kit (BD Biosciences, Franklin Lake, N.J.). The BrdU (5-bromo-2-deoxyuridine)/terminal deoxynucleotidyl transferase (TdT)-mediated 2′-deoxyuridine 5′-triphosphate (dUTP)-biotin nick end labeling (TUNEL) assay (APO-Direct, BD Biosciences, Franklin Lake, N.J.) was performed according to the manufacturer's protocol. Briefly, paraformaldehyde-fixed cells were washed and incubated with staining solution (10 μl of TdT reaction buffer, 0.75 μl of TdT enzyme, and 8 μl of FITC-dUTP) overnight. The following day, cells were rinsed and resuspended in 1 ml of PI/RNase solution. Following incubation in the dark for 30 minutes at room temperature, flow cytometry was performed to obtain the percentage of apoptotic cells. Cell cycles were analyzed with a program combined with the FCM (Multicycle, Phoenix Flow System, San Diego, Calif.).

[4] = test system: MCF7/Her18 cells; experiment: as above; type: cell-based, human
Excerpt: as §2

[5] = test system: MDA-MB-436 cells; experiment: Prostaglandin E2 (PGE2) measurement; type: cell-based, human; details: 72-hour treatment, vectors MOI 1000 vp/cell, celecoxib 50 uM
Procedure: (§3) After a 72-hr incubation, 3 μl of arachidonic acid (1 mM) was added to the culture media to boost the PGE2 production for 30 minutes. The supernatant was collected and stored at −80° C. until PGE2 concentration was measured using an enzyme-linked immunoassay kit (Cayman Chemical, Ann Arbor, Mich.) according to the manufacturer's manual. The final results from the triplicated values were expressed as pg/ml.

[6] = test system: MCF7/Her18 cells; experiment: Prostaglandin E2 (PGE2) measurement; type: cell-based, human; details: 72-hour treatment, vectors MOI 2000 vp/cell, celecoxib 20 uM
Procedure: as §3

[7] = cited from earlier work
[8] = test system: HUVECs; experiment: Endothelial cell proliferation with conditioned medium from treated H1299 cells; type: cell-based, human; details: medium collected at 48 h; compared to PBS and Ad-luc
Procedure: For analysis of the effect of conditioned medium from Ad-mda7-treated H1299 on endothelial cell proliferation, human umbilical vein endothelial cells (HUVECs) were seeded in six-well plates (3×10^5 cells/well). […] HUVECs were incubated for an additional 3 days and later harvested and subjected to cell viability assay (Ramesh et al., 2003; Mhashilkar et al., 2001).

[9] = test system: H1299 tumors in nude mice; experiment: Subcutaneous H1299 xenograft; type: in vivo, mouse; details: vector 1×10^10 vp intratumorally, Avastin 5 mg/Kg (100 ug/body) i.p., twice a week, 28 days
Procedure: Bivacizumab (100 ug/body) was given i.p. twice a week. Animals were weighed weekly and tumor growth was measured thrice a week as described previously (Saeki et al., 2002; Ramesh et al., 2003). At 28 days after the first treatment, all animals were killed via CO2 inhalation, and tumors were collected for histopathological examination and Western blot analysis. Two different sets of experiments were done.

[10] = test system: HUVECs; experiment: Cell viability assay (trypan blue exclusion); type: cell-based, human; details: Ad-mda7 1000 vp/cell; Bivacizumab 0.78, 1.56, 3,125 ug/ml; 48 h and 72 h
Procedure: (§4) H1299 cells (2×10^5/well) and HUVECs (3×10^5/well) were seeded in six-well plates. […] At 48 hours and […] after the treatment, cells were trypsinized and analyzed for trypan blue cell exclusion assay.

[11] = test system: H1299 cells; experiment: Cell viability assay (trypan blue exclusion); type: cell-based; details: Ad-mda7 1000 vp/cell; Bivacizumab 0.78, 1.56, 3,125 ug/ml; up to 72 hours
Procedure: Cells treated with PBS served as a control. Cells were harvested at various time points as listed in figures and subjected to cell viability assay as previously described (Saeki et al., 2000).
as §4

[12] = test system: MCF-7 cells; experiment: 3H-thymidine cell proliferation assay; type: cell-based, human; details: Taxotere 0.5-2 ng/mL, 3 days
Procedure: (§8) Cells were plated at 500-2000 cells/well in 96-well format for ^3H-thymidine incorporation-assays, or at 10^5-10^6 cells/well in a 6-well plate format for protein expression, trypan blue viability or apoptosis assays. In drug combination studies, drugs were added once just prior to addition of vectors and cells were continuously exposed to agents.
(§9) The cells were harvested using Trypsin/EDTA (GIBCO), collected on a Filter using a Packard Filtermate cell Harvester, and washed in deionized water and methanol following the manufacturer protocols. The filters were dried and analyzed using a Matrix 9600 (Packard).

[13] = test system: T47D cells; experiment: 3H-thymidine cell proliferation assay; type: cell-based, human; details: Taxotere 0.5-2 ng/mL, 3 days
Procedure: as §8, §9

[14] = test system: MDA-MB453 cells; experiment: Cell viability by trypan blue exclusion assay; type: cell-based, human; details: for cell death (cytotoxicity) by cytokine protein: 30 ng/ml, 96 h
Procedure: (§5) MDA-MB231 and MDA-MB453 breast cancer lines were obtained from the America Type Culture Collection (ATCC, Manassas, Va.) and were maintained in DMEM (Hyclone, Inc., Logan, Utah) supplemented with 10% fetal bovine serum (Life Technologies, Inc.), 100 units/ml penicillin, 100 μg/ml streptomycin, 2 mM L-glutamine, and HEPES buffer (Life Technologies, Inc., Grand Island, N.Y.). The cells were screened routinely to verify lack of mycoplasma contamination and were used in the log phase of growth. […] Rabbit phospho-Stat3 (Tyr705) antibody was purchased from Cell Signaling Technology Inc. (Beverly, Mass.), β-Actin monoclonal antibody and terminal deoxynucleotidyl transferase-mediated dUTP-biotin nick-end labeling (TUNEL) kits were purchased from Oncogene Research Products (San Diego, Calif.), and all other primary and secondary antibodies were purchased from Santa Cruz Biotechnology (Santa Cruz, Calif.). Cell viability was analyzed by trypan blue exclusion assay. Cells were trypsinized and an aliquot suspended 1:1 volume with 0.4% trypan blue.
(§6) Full-length mda-7 cDNA was cloned into pCEP4 FLAG vector (Invitrogen, San Diego, Calif.) containing the CMV promoter. The plasmid was transfected into HEK 293 cells, and stable sub-clones were isolated using hygromycin (0.4 μg/ml).
(§7) The mda-7 gene was linked to an internal CMV-IE promoter, followed by an SV40 polyadenylation sequence. The same adenoviral vector containing the sequence for expression of luciferase (Ad-luc) was used as control virus. Cells were plated 1 day before infection.

[15] = test system: MDA-MB231 cells; experiment: Cell viability by trypan blue exclusion assay; type: cell-based, human; details: for cell death (cytotoxicity) by cytokine protein: 30 ng/ml, 96 h
Procedure: as §5, §6, §7

[16] = test system: T47D cells; experiment: Annexin V apoptosis assay; type: cell-based, human; details: T47D cells treated with Ad-mda7 2000 vp/cell
Procedure: Apoptosis was measured by TUNEL and Annexin V assays. […] Cell viability was determined by trypan-blue exclusion assay.

[17] = test system: STAT3; experiment: Phospho-STAT3 immunofluorescence assay; type: cell-based, human; details: MDA-MB231 and MDA-MB453 cells
Procedure: Cells growing in chamber slides were treated with human IL-24 protein in various concentrations (0-20 ng/ml) for 30 min. Cells were fixed with ethanol:acetic acid (9.5:0.5) and then stained with phospho-Stat3 primary antibody and FITC-labeled secondary antibody. The slides were analyzed using a Nikon fluorescence microscope.

[18] = 48 h, two doses of 17AAG, combination compared with Ad-luc and 17AAG
[19] = 30 ng/ml IL-24 with IL-10 0-300 ng/ml

## COC1=C2C[C@@H](C)C[C@H](OC)[C@H](O)[C@@H](C)/C=C(\C)[C@H](OC(N)=O)[C@@H](OC)/C=C\C=C(/C)C(=O)NC(=CC1=O)C2=O [GA, Geldanamycin]
[1]; GA 50 nm
  percentage of apoptosis: 6.3%
[1]; GA 150 nm
  percentage of apoptosis: 23.6%
[2]; GA 50 nm
  percentage of apoptosis: 5.7%
[2]; GA 150 nm
  percentage of apoptosis: 21%

## Cc1ccc(-c2cc(C(F)(F)F)nn2-c2ccc(S(N)(=O)=O)cc2)cc1 [Celecoxib, 4-[5-(4-methylphenyl)-3-(trifluoromethyl)-1H-pyrazol-1-yl]benzenesulfonamide]
[3]; 72-hour treatment
  cell cycle effect: blocked more cells at the G1 checkpoint than Ad-mda7
[3]; 72-hr treatment
  apoptosis (Annexin V/FITC, TUNEL): promoted apoptosis
[4]; 72-hour treatment
  cell cycle effect: blocked more cells at the G1 checkpoint than Ad-mda7
[4]; 72-hr treatment
  apoptosis (Annexin V/FITC, TUNEL): promoted apoptosis
[5]
  Prostaglandin E2 production: 116.7^§ pg/ml
[6]
  Prostaglandin E2 production: 16.7^§ pg/ml
[7]; fasted conditions
  effective half-life: roughly 11 hours
[7]; in vivo
  time of peak plasma levels after an oral dose: roughly 3 hours
  delay of plasma levels with a high fat meal: 1 to 2 h
  increase in total absorption with a high fat meal: 10-20%
[7]; single dose
  dose excreted in feces: 57%
  dose excreted in the urine: 27%

## C=CCNC1=C2C[C@@H](C)C[C@H](OC)[C@H](O)[C@@H](C)/C=C(\C)[C@H](OC(N)=O)[C@@H](OC)/C=C\C=C(/C)C(=O)NC(=CC1=O)C2=O [17AAG, 17-allyl-aminogeldanamycin]
[1]; [18]
  cell death / apoptosis with 17AAG: resulted in cell death
[2]; [18]
  cell death / apoptosis with 17AAG: resulted in cell death

## Cc1onc(-c2ccccc2)c1-c1ccc(S(N)(=O)=O)cc1 [valdecoxib, 4-(5-methyl-3-phenyl-4-isoxazolyl)benzenesulfonamide]
[7]; human plasma
  active metabolite concentration in human plasma relative to parent: about 10%
[7]; in vivo
  time of peak plasma levels after an oral dose: about 3 hours
  delay of plasma levels with a high fat meal: 1 to 2 h

## Bevacizumab: VEGF inhibitor, monoclonal antibody that specifically binds VEGF
[8]
  HUVEC proliferation with conditioned medium from treated H1299 cells: significantly inhibited HUVEC proliferation
[9]
  tumor growth: Significant inhibition of tumor growth
[10]
  cell viability / toxicity: inhibited HUVEC viability
[11]
  cell viability / toxicity: did not show harmful effect

## CC(=O)O[C@@]12CO[C@@H]1C[C@H](O)[C@@]1(C)C(=O)[C@H](O)C3=C(C)[C@@H](OC(=O)[C@H](O)[C@@H](NC(=O)OC(C)(C)C)c4ccccc4)C[C@@](O)([C@@H](OC(=O)c4ccccc4)[C@H]21)C3(C)C [Taxotere, docetaxel]
[12]
  inhibition of thymidine incorporation: approximately 40%
[13]
  inhibition of thymidine incorporation: approximately 40%

## IL-22: IL-10 family cytokine
[14]
  cell death (cytotoxicity) by cytokine protein: none of these induced cell death above background levels
[15]
  cell death (cytotoxicity) by cytokine protein: none of these induced cell death above background levels

## CS(=O)(=O)c1ccc(C2=C(c3ccccc3)C(=O)OC2)cc1 [rofecoxib, 4-[4-(methylsulfonyl)phenyl]-3-phenyl-2-(5H)furanone]
[7]; in vivo
  time of peak plasma levels after an oral dose: 2 to 3 h
  delay of plasma levels with a high fat meal: 1 to 2 h

## COC(=O)C[C@H](NC(=O)[C@H](C)NC(=O)[C@@H](NC(=O)OCc1ccccc1)C(C)C)C(=O)CF [ZVAD] (Cbz-Val-Ala-Asp(OMe)-CH2F)
[16]
  reduction of Ad-mda7 induced apoptosis: 40%

## IL-10: recombinant IL-10
[17]
  STAT3 activation (phospho-STAT3): able to activate STAT3
[14]; [19]
  effect on IL-24-protein-induced killing: significantly inhibited IL-24-protein-induced killing in a dose-dependent manner
[14]
  cell death (cytotoxicity) by cytokine protein: none of these induced cell death above background levels
[15]; [19]
  effect on IL-24-protein-induced killing: significantly inhibited IL-24-protein-induced killing in a dose-dependent manner
[15]
  cell death (cytotoxicity) by cytokine protein: none of these induced cell death above background levels

B1: IL-19: IL-10 family cytokine (protein, UniProt Q9UHD0 25-177, looked up)
Interleukin-19: LRRCLISTDMHHIEESFQEIKRAIQAKDTFPNVTILSTLETLQIIKPLDVCCVTKNLLAFYVDRVFKDHQEPNPKILRKISSIANSFLYMQKTLRQCQEQRQCHCRQEATNATRVIHDNYDQLEVHAAAIKSLGELDVFLAWINKNHEVMFSA
[14]
  cell death (cytotoxicity) by cytokine protein: none of these induced cell death above background levels
[15]
  cell death (cytotoxicity) by cytokine protein: none of these induced cell death above background levels

B2: IL-24: purified human IL-24 (MDA-7) protein from 293-IL24 cell supernatant (protein)
chain: QEFHFGPCQVKGVVPQKLWEAFWAVKDTMQAQDNITSARLLQQEVLQNVSDAESCYLVHTLLEFYLKTVFKNYHNRTVEVRTLKSFSTLANNFVLIVSQLQPSQENEMFSIRDSAHRRFLLFRRAFKQLDVEAALTKALGEVDILLTWMQKFYKL
[17]
  STAT3 activation (phospho-STAT3): able to activate STAT3
[14]
  cell death (cytotoxicity) by cytokine protein: induction of significant cell death
[15]
  cell death (cytotoxicity) by cytokine protein: induction of significant cell death
